Values of other authors as cited in patent US20100062066A1, “Formulations of Tetrahydropyridine Antiplatelet Agents for Parenteral or Oral Administration” (Acusphere, Inc, priority 2006, published 2010).

Test system: platelet aggregation
Settings: background statement on clopidogrel enantiomers

| Structure (SMILES) | anti-aggregation activity |
| --- | --- |
| COC(=O)C(c1ccccc1Cl)N1CCc2sccc2C1 (single isomer, unassigned) [R-enantiomer] | does not exhibit any anti-aggregation activity |
| COC(=O)[C@H](c1ccccc1Cl)N1CCc2sccc2C1 (single isomer, unassigned; enantiomer 2) [S-enantiomer, 2-(2-chlorophenyl)-2-(2,4,5,6,7,7a-tetrahydrothieno[3,2-c]pyridine)-5-yl-acetic acetic acid methyl ester] | biologically active |
